Source: PMC10093845, “Inhibitory Activities of Samples on Tyrosinases Were Affected by Enzyme Species and Sample Addition Methods” (International Journal of Molecular Sciences, 2023)
Read-outs that look alike come from different tables or passages of the source. Values belong to the compound of their own block, whether it stands above or below them.

Assays:
[1] = target: T1, BTYR (intracellular TYR of B16F10 cells) (Mus musculus, UniProt P11344); experiment: BTYR indirectly inhibitory activity in cells cultured by compounds; assay type: cell-based, murine
T1 construct: The lysates, called BTYR, were centrifuged at 12,000 rpm for 10 min at 4 °C; endogenous in cells; host or cells: B16F10 murine melanoma cells
T1 sequence (P11344 19-533): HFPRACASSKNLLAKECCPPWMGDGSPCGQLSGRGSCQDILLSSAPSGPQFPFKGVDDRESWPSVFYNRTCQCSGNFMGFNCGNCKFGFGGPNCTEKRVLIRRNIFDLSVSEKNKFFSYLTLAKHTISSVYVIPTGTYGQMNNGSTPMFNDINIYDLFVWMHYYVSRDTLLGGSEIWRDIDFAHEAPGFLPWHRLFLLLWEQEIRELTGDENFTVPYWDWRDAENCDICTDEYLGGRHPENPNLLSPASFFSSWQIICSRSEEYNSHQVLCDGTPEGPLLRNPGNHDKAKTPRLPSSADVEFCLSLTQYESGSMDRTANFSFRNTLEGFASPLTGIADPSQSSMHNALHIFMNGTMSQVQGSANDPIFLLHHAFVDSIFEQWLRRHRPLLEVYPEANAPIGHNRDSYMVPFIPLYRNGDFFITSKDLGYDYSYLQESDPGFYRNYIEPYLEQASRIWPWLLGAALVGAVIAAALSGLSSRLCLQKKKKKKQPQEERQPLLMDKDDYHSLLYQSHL
Experimental: Referring to our previous methods. In short, B16F10 murine melanoma cells from Stem Cell Bank (Chinese Academy of Sciences, Shanghai, China) were cultured in DMEM supplemented with 10% FBS in a humidified atmosphere of 5% CO2 at 37 °C.
The BTYR indirectly inhibitory activity was assayed according to our previous procedure with slight modification. Cells were cultured by complete medium containing compounds for 48 h and lysed by 120 μL of lysis buffer to obtain crude BTYR extract. […] The molarities of EGCG were 25, 50, 100, 125, 150, 175 and 200 μM. The treatment group without samples was negative control.
In a reaction system of 100 μL, 20 μL of BTYR was mixed with 60 μL of 8 mM L-DOPA (the remaining volume was supplemented with 20 mM pH 6.8 PBS), and immediately placed at 475 nm for dynamic detection for 30 min. The absorbance was measured once per minute. The control group containing only BTYR (blank control and sample control) was set for synchronous detection to exclude background interference.
With negative control as the reference, the indirectly inhibitory activity of BTYR was calculated in the same way as in Section 4.2.

[2] = test system: ATYR (crude TYR extracted from apple); experiment: ATYR directly inhibitory activity; assay type: biochemical; conditions: for IC50: sample in direct contact with ATYR, kojic acid inhibits only at high concentration (800–4000 µM)
Experimental: The preparation of fresh-cut apple slices was the same as in Section 4.4. The preparation of crude ATYR was carried out by reference and slightly adjusted. […] Finally, these apple slices were used to extract ATYR. […] After the supernatant was divided, it was quick-frozen with liquid nitrogen, and then stored in the refrigerator at −80 °C. The supernatant was used for ATYR activity analysis. In a reaction system of 200 μL, 40 µL ATYR was mixed with 40 µL corresponding compound in 96-well plates. After incubated at 25 °C for 10 min, L-DOPA (120 µL, 8 mM) was added to each well as a substrate. Once the substrate was added in reaction system, the formation of dopachrome was immediately measured at 475 nm for 30 min at 1 min intervals. […] The group setting and the calculation of ATYR directly inhibitory activity were the same as in Section 4.2.

B16F10 cells [3] = experiment: Cell viability (CCK-8); assay type: cell-based, murine
Experimental: (§1) Referring to our previous methods. […] Measurement of cell viability was determined according to our previous procedure. In brief, cells were seeded into 96-well plates at a density of 1 × 10^4 cells/well and incubated for 24 h. Then, the culture medium was replaced with complete medium containing compound and further incubated at 37 °C for 48 h. After rinsing once with D-PBS, 100 µL DMEM containing 10% CCK-8 was added to each well. Followed by another 1 h incubation, the absorbance at 450 nm was measured. […] The cell viability was expressed as a percentage of the control.

[4] = test system: ATYR (crude TYR extracted from apple); experiment: ATYR indirectly inhibitory activity (apple slices soaked, then enzyme extracted); conditions: apple slices soaked in 1 mM for 10 min; water 0 ± 4% as negative control; negative = promotion
Experimental: The preparation of fresh-cut apple slices was the same as in Section 4.4. The preparation of crude ATYR was carried out by reference and slightly adjusted. […] Finally, these apple slices were used to extract ATYR. […] After the supernatant was divided, it was quick-frozen with liquid nitrogen, and then stored in the refrigerator at −80 °C. The supernatant was used for ATYR activity analysis. Apple slices, immersing in various test solutions for 10 min, were used to extract crude ATYR solution. […] The control group containing only ATYR (blank control and sample control) was set for synchronous detection to exclude background interference. With negative control as the reference, the indirectly inhibitory activity of ATYR was calculated in the same way as in Section 4.2.

MTYR (mushroom TYR) [5] = target: T2, MTYR (mushroom TYR) (Agaricus bisporus, UniProt C7FF04); experiment: MTYR directly inhibitory activity; assay type: biochemical
T2 sequence (C7FF04 1-392): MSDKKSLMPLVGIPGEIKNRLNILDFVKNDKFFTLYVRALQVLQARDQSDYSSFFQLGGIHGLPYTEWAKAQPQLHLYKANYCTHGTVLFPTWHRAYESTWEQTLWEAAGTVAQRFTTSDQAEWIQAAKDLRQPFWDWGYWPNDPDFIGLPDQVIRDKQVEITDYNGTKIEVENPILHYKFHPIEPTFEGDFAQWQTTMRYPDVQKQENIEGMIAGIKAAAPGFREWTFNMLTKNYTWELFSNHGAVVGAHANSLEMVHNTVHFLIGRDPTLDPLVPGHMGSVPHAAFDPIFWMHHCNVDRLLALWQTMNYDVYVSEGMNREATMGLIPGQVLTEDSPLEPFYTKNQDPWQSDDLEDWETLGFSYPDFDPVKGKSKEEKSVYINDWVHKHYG
T2 sequence (G1K3P4 1-150 partner): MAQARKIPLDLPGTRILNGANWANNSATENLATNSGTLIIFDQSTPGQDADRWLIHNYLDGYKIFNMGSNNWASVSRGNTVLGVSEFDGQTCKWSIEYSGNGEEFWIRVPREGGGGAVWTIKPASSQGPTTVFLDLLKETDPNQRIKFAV
Experimental: The MTYR directly inhibitory activity was assayed according to our previous procedure. Briefly, the reaction media was 200 µL in 96-well plates. MTYR (40 µL, 30 U/mL) in PBS (20 mM, pH 6.8) was incubated with the corresponding compound (40 µL) at 25 °C for 10 min. Then, L-DOPA ([…], 8 mM) was added to each well as a substrate. The other steps and the calculation of MTYR directly inhibitory activity were the same as above method in Section 4.2.

MTYR (mushroom TYR) [6] = target: T2, MTYR (mushroom TYR); experiment: Kinetic analysis of MTYR (Lineweaver-Burk); assay type: biochemical; conditions: L-DOPA substrate
Experimental: The experimental method was the same as Section 4.8, except for the substrate concentration and compound concentration. A series of experiments were performed to determine the type of inhibition.
The molarities of L-DOPA were 0.0625, 0.25, 1, 4 and 8 mM. […] The Km and Vmax of MTYR were determined by the Michaelis–Menten equation. The Lineweaver–Burk plot was used to display the data. Secondary replot of Lineweaver–Burk plot or intercept was used to display inhibition constant (Ki) and α.

B16F10 cells [7] = experiment: Intracellular melanin content; assay type: cell-based, murine; conditions: 100 μg/mL, α-MSH stimulated B16F10 cells, 48 h
Experimental: Measurement of intracellular melanin content was determined according to our previous procedure. Briefly, Cells were cultured by complete medium containing compounds for 48 h. Then, intracellular melanin was extracted by 1 M NaOH containing 10% DMSO. The absorbance of the dissolved melanin was obtained using a microplate reader at 405 nm. The melanin content of each treatment group was calculated with the negative control group as reference.

B16F10 cells [8] = conditions: previous studies; cited from earlier work
BTYR mRNA = experiment: qPCR analysis of TYR gene; assay type: cell-based, murine; conditions: 100 μg/mL, 24 h, α-MSH stimulated
Experimental: Measurement of mRNA expression of TYR was determined according to our previous procedure. […] Total RNAs prepared were followed and qPCR analysis of TYR were carried on with β-actin as an internal control.

[9] = target: T3, BTYR (TYR crude enzyme extract from B16F10 cells) (Mus musculus, UniProt P11344); experiment: BTYR directly inhibitory activity (TYR extraction followed by sample treatment, non-cellular system); assay type: biochemical, murine
T3 construct: The lysates, called BTYR, were centrifuged at 12,000 rpm for 10 min at 4 °C; endogenous in cells; host or cells: B16F10 murine melanoma cells
T3 sequence (P11344 19-533): T1 sequence (P11344 19-533)
Experimental: B16F10 cells at the exponential phase in 10 cm^2 cell culture dish were washed with D-PBS two times and incubated for 30 min at −20 °C in 1.16 mL of lysis buffer. The lysates, called BTYR, were centrifuged at 12,000 rpm for 10 min at 4 °C.
The reaction system in 96-well plate was 100 μL. 20 μL of BTYR was mixed with 20 μL compounds and incubated at 25 °C for 10 min, then 60 μL of 8 mM L-DOPA was added to start the reaction. A Synergy H1 microplate reader (BioTek Instruments, Inc., Winooski, VT, USA) was used to dynamically monitor the optical densities at 475 nm. Absorbance was measured every minute and sustained 30 min. The initial velocity (v0) of each reaction was represented by the slope of the initial linear range of the progress curve, and was used to calculate the relative enzyme activity of each treatment [16].
BTYR directly inhibitory activity compared to negative control could be expressed by following formula [16]. Δsample = sample − sample control, Δcontrol = negative control − blank control(1) kΔsample = (Δsamplet1 − Δsamplet0)/(t1 − t0), kΔcontrol = (Δcontrolt1 − Δcontrolt0)/(t1 − t0)(2) (3) BTYR direct inhibition %=1−kΔsample/kΔcontrol×100 […]

HTYR = conditions: cited from earlier work
MTYR = conditions: cited from earlier work
Cell viability (CCK-8) = assay type: cell-based, murine; conditions: mouse, B16F10 melanoma cells, 48 h
Experimental: as §1

HMV-II = test system: HMV-II; parameters: method as in PMID 15056856; conditions: concentration lower than 1 mM; cited from earlier work

Structure (SMILES): O=C(O[C@@H]1Cc2c(O)cc(O)cc2O[C@@H]1c1cc(O)c(O)c(O)c1)c1cc(O)c(O)c(O)c1 [EGCG, Epigallocatechin gallate]
- intracellular BTYR activity ([1]; 100 μg/mL, α-MSH stimulated B16F10 cells, 48 h): inhibit intracellular BTYR activity
- IC50 ([1]; cells cultured with compound 48 h, then TYR extracted): 0.195 ± 0.003 mM
- IC50 [2]: 1.77 ± 0.02 mM
- Cell Viability (%) (B16F10 cells [3]; 25 µM, 48 h): 100 ± 2%
- Cell Viability (%) (B16F10 cells [3]; 50 µM, 48 h): 98 ± 2%
- Cell Viability (%) (B16F10 cells [3]; 100 µM, 48 h): 95 ± 6%
- Cell Viability (%) (B16F10 cells [3]; 200 µM, 48 h): 106 ± 1%
- Cell Viability (%) (B16F10 cells [3]; 400 µM, 48 h): 66 ± 4%
- Cell Viability (%) (B16F10 cells [3]; 600 µM, 48 h): 4 ± 0%
- Cell Viability (%) (B16F10 cells [3]; 800 µM, 48 h): 2 ± 1%
- Cell Viability (%) (B16F10 cells [3]; 1000 µM, 48 h): 1 ± 1%
- Cell Viability (%) (B16F10 cells [3]; 1200 µM, 48 h): −1 ± 0%
- ATYR indirectly inhibitory activity [4]: −7 ± 7%
- IC50 (MTYR (mushroom TYR) [5]; L-DOPA substrate): 1.42 ± 0.061 mM
- MTYR directly inhibitory activity relative to kojic acid (MTYR (mushroom TYR) [5]; ratio of IC50): 1/15
- Inhibition type (MTYR (mushroom TYR) [6]): competitive
- Km (change with increasing compound molarity) (MTYR (mushroom TYR) [6]): increasing
- Vmax (change with increasing compound molarity) (MTYR (mushroom TYR) [6]): constant
- Ki (MTYR (mushroom TYR) [6]; replot of Lineweaver–Burk slopes): 0.17 mM
- intracellular melanin content (B16F10 cells [7]): significantly reduce
- concentration significantly reducing melanin content of B16F10 cells in a dose-dependent manner (B16F10 cells [8]): 55 to 218 µM
- mRNA expression of BTYR in cells (BTYR mRNA): significantly inhibit
- catalytic activity of BTYR in non-cellular system ([9]; 100 μg/mL): could not
- BTYR direct inhibition rate ([9]; 0.025–2.4 mM EGCG): < 50%

Structure (SMILES): Oc1ccc(O)cc1 [hydroquinone]
- activity on HTYR relative to that on MTYR (HTYR): 1/4000
- IC50 (HTYR; read-out: IC50 on HTYR): 4.4 mM
- IC50 (MTYR; read-out: IC50 on MTYR): 0.0011 mM

- EC50 ([2]; low concentration (12.5–400 µM) of kojic acid, read-out: EC50, promotion of ATYR activity): 0.096 ± 0.004 mM
- IC50 [2]: 2.11 ± 0.02 mM
- ATYR indirectly inhibitory activity [4]: −71 ± 4%
Structure (SMILES): O=c1cc(CO)occ1O [kojic acid]
- viability at 48 h, 25 µM (Cell viability (CCK-8); 25 µM): 100 ± 4%
- viability at 48 h, 50 µM (Cell viability (CCK-8); 50 µM): 101 ± 2%
- viability at 48 h, 100 µM (Cell viability (CCK-8); 100 µM): 95 ± 1%
- viability at 48 h, 200 µM (Cell viability (CCK-8); 200 µM): 90 ± 3%
- viability at 48 h, 400 µM (Cell viability (CCK-8); 400 µM): 90 ± 3%
- viability at 48 h, 600 µM (Cell viability (CCK-8); 600 µM): 96 ± 5%
- viability at 48 h, 800 µM (Cell viability (CCK-8); 800 µM): 99 ± 4%
- intracellular melanin content (B16F10 cells [7]): significantly reduce
- concentration significantly reducing melanin content of B16F10 cells in a dose-dependent manner (B16F10 cells [8]): 175 to 700 µM
- mRNA expression of BTYR in cells (BTYR mRNA): significantly inhibit

Structure (SMILES): OC[C@H]1O[C@H](Oc2ccc(O)cc2)[C@H](O)[C@@H](O)[C@@H]1O [α-arbutin]
- effect on growth of HMV-II (HMV-II): did not inhibit the growth
- inhibition of the diphenolase activity of MTYR (MTYR): could not inhibit

- ATYR indirectly inhibitory activity [4]: 80 ± 0%
Structure (SMILES): OC[C@H]1O[C@@H](Oc2ccc(O)cc2)[C@H](O)[C@@H](O)[C@@H]1O [β-arbutin]
- promotion of ATYR activity (max) ([2]; 0.025–320 mM β-arbutin, direct): ≤ 21%
- Cell Viability (%) (B16F10 cells [3]; 25 µM): 108 ± 2%
- Cell Viability (%) (B16F10 cells [3]; 50 µM): 115 ± 4%
- Cell Viability (%) (B16F10 cells [3]; 100 µM): 125 ± 2%
- Cell Viability (%) (B16F10 cells [3]; 200 µM): 138 ± 3%
- Cell Viability (%) (B16F10 cells [3]; 400 µM): 171 ± 1%
- Cell Viability (%) (B16F10 cells [3]; 600 µM): 195 ± 3%
- Cell Viability (%) (B16F10 cells [3]; 800 µM): 206 ± 0%
- Cell Viability (%) (B16F10 cells [3]; 1000 µM): 211 ± 1%
- Cell Viability (%) (B16F10 cells [3]; 1200 µM): 222 ± 2%
- IC50 (MTYR; read-out: IC50, diphenolase activity of MTYR): 8.4 mM
- concentration significantly reducing melanin content of B16F10 cells in a dose-dependent manner (B16F10 cells [8]): 43.8 to 700 µM
